{
  "source": "paper PMC7076440",
  "about": "“New Preclinical Development of a c-Met Inhibitor and Its Combined Anti-Tumor Effect in c-Met-Amplified NSCLC” (Pharmaceutics, 2020)",
  "key": {"Forced degradation study": {"assay": "Forced degradation study", "type": "physicochemical", "method": "ABN401 was dissolved in 50/50 (v/v) % of acetonitrile and water, to give a stock solution of 2 mg/mL. The stock sample was diluted to a final concentration of 0.5 mg/mL and subjected to various stresses such as 1.0 N HCl acid (pH 1.1), 1.0 N NaOH base (pH 12.3), 1.0% hydrogen peroxide, heat (in solution and as a solid material) in an oven at 60 °C, and UV-Vis light (in solution) in a closed quartz container at 20 °C with UV light at 16.08 mW/m2; Vis 5.7 kLux. The samples were tested with quantitative HPLC method at 24, 48, and 72 h. The results were expressed in area % for recovery. The control sample was left at ambient conditions to simulate the potential loss of ABN401 when left at ambient conditions (> 99.0%)."}, "[1]": {"assay": "Pharmacokinetic study in beagle dogs", "type": "in vivo", "conditions": "for BA: PO; for BA / Tmax / AUC(0-inf) / AUC(0-t) / Cmax / MRT last / half-life: beagle dogs", "excerpt": "Male beagle dogs were purchased from Marshall, Beijing, China. They were housed under controlled humidity, temperature, and a 12L:12D lighting schedule. Before the experiment, the animals were fed less than 300 g/day for 2 days and those with a body weight around 7.0 ± 0.5 kg were selected for the pharmacokinetic study (n = 3). They were fasted overnight before the experiments but allowed to drink water. This study was reviewed, assessed, and approved by the Institutional Animal Care and Use Committee (IACUC) of the Korea Institute of Toxicology (KIT). The project identification codes were N117008 and N116047, signed on 31 May 2017. For the experiments, 0.5-mL blood samples were collected from each animal at selected intervals and loaded into K2-EDTA tubes. After centrifugation at 13,200 rpm for 5 min, quantitative analysis was performed using LC-MS/MS. Acetic acid buffer (0.1 M) at pH 4.0 with 20% PEG400 was selected as the intravenous solution for ABN401 and WinNonlinTM (Version 5.2.1, Pharsight, USA) was used to calculate the pharmacokinetic parameters (i.e., T1/2: terminal half-life, Cmax: maximum observed peak concentration, Tmax: time to reach Cmax, AUClast: area under the time-concentration curve from zero to the last quantifiable time-point, AUCinf: area under the time-concentration curve from zero to infinity, MRTlast: mean residence time from zero to the last quantifiable time-point). The bioavailability (BA) of each dose was calculated using the following equation:Bioavailability = (AUClast_po/AUClast_iv) × 100(5)\nHPLC system (Agilent 1200, Santa Clara, CA, USA), consisting of a binary pump, a degasser, and a refrigerated autosampler (at 10 °C), was used in this study. Analytical samples were separated on the Agilent Eclipse XDB-C18 (3.5 um, 2.1 × 50 mm) at 23 °C. The mobile phase was composed of solvent A (10 mM ammonium formate in purified water) and solvent B (0.1 % formic acid in acetonitrile) and delivered at a flow rate of 0.3 mL/min. In this study, the gradient separation (i.e., the initial condition of the mobile phase consisted of 80% of solvent A and 20% of solvent B, then solvent A was decreased to 0% within 2 min and maintained for 5 min, followed by an increase to 80% within 0.2 min, maintained until 10 min) was used with a 10-min run time per sample. The MS system was composed of an API 4000 Sciex triple quadruple mass spectrometer (AB Sciex, Framingham, MA, USA). The triple quadrupole mass spectrometer was equipped with a turbo ion spray source. The MS/MS detection involved multiple reaction-monitoring in the positive ionization mode. The intensive tracer ion mass for each compound was 567.5 → 467.2 for ABN401 and 237.3 → 194.11 for carbamazepine as an internal standard. The conditions for the electrospray interface were: curtain gas, 20 psi; collision gas, medium; ion spray voltage, 5000 V; temperature, 500°C; ion source gas 1, 50 psi and ion source gas 2, 55 psi. The optimized voltage parameters for the analytes were as follows: declustering potential (61 V), entrance potential (10 V), collision energy (28 V), and collision cell exit potential (12 V). Data acquisition, quantification, and calculations were performed with the Analyst software version 1.4.2 (AB Sciex, Framingham, MA, USA)."}, "[2]": {"assay": "log D / log P, octanol/water", "type": "physicochemical", "method": "ABN401 solution (10 μg/mL) was mixed with octanol at a ratio of 1:1 in a glass vial and placed horizontally in a Digital Bio Rotator (SeoLin Bioscience, Seongnam, Korea), and shaken at a constant 90 rpm for 24 h. After 6 h of equilibrium under room temperature, two phases of water and octanol were separated using a separating funnel. The experiment was repeated five times. The concentration of ABN401 at each phase was analyzed by HPLC and log P and log D were calculated using the Henderson-Hasselbalch equation below with the previously determined pKa value. (4) logDbases =logP+log⎣1/(1+ 10^pKa−pH)⎦"}, "[3]": {"conditions": "male, beagle, dog, plasma, iv, 1 mg/kg, mean ± SD"}, "[4]": {"conditions": "male, beagle, dog, plasma, po, 1 mg/kg, capsule with MCC, mean ± SD"}, "[5]": {"conditions": "male, beagle, dog, plasma, po, 5 mg/kg, capsule with MCC, mean ± SD"}, "[6]": {"conditions": "male, beagle, dog, plasma, po, 5 mg/kg, capsule without MCC, mean ± SD"}, "[7]": {"conditions": "male, beagle, dog, plasma, po, 10 mg/kg, capsule with MCC, mean ± SD"}},
  "note": "Values joined by “and” are separate entries in the source; they are usually repeats but may differ in a detail not shown here. Identical values can stand only once.",
  "data": [
    {"molecule": "CN1CCN(Cc2ccc(-c3cnc(N4CCOC(Cn5nnc6ncc(-c7cnn(C)c7)nc65)C4)nc3)cc2)CC1", "note": "(stereo not drawn) [ABN401]", "values": [
      {"measurement": "difference after exposure to acidic and basic pH", "setting": "Forced degradation study; 1.0 N HCl (pH 1.1), 1.0 N NaOH (pH 12.3), 72 h", "value": "approximately 1.7%"},
      {"measurement": "sensitivity to UV/Vis light", "setting": "Forced degradation study; in solution", "value": "highly sensitive"},
      {"measurement": "recovery of control sample", "setting": "Forced degradation study; left at ambient conditions, area %", "value": "> 99.0", "unit": "%"},
      {"measurement": "BA", "setting": "[1]; 1 mg/kg, capsule with MCC, mean ± SD", "value": "28.3 ± 15.8", "unit": "%"},
      {"measurement": "BA", "setting": "[1]; 5 mg/kg, capsule with MCC, mean ± SD", "value": "30.7% and 30.7 ± 1.7%"},
      {"measurement": "BA", "setting": "[1]; 5 mg/kg, capsule without MCC, mean ± SD", "value": "30.7% and 30.7 ± 15.1%"},
      {"measurement": "BA", "setting": "[1]; 10 mg/kg, capsule with MCC, mean ± SD", "value": "11.3 ± 2.7", "unit": "%"},
      {"measurement": "Tmax", "setting": "[1]; male, beagle, dog, plasma, iv, 1 mg/kg", "value": 0.083, "unit": "h"},
      {"measurement": "AUC(0-inf)", "setting": "[1]; [3]", "value": "287 ± 108", "unit": "ng·h/mL"},
      {"measurement": "AUC(0-t)", "setting": "[1]; [3]", "value": "266 ± 105", "unit": "ng·h/mL"},
      {"measurement": "Cmax", "setting": "[1]; [3]", "value": "308 ± 271", "unit": "ng/mL"},
      {"measurement": "MRT last", "setting": "[1]; [3]", "value": "1.5 ± 0.7", "unit": "h"},
      {"measurement": "half-life", "setting": "[1]; [3]", "value": "1.9 ± 0.7", "unit": "h"},
      {"measurement": "AUC(0-inf)", "setting": "[1]; [4]", "value": "96.2 ± 40.7", "unit": "ng·h/mL"},
      {"measurement": "AUC(0-t)", "setting": "[1]; [4]", "value": "75.4 ± 42", "unit": "ng·h/mL"},
      {"measurement": "Cmax", "setting": "[1]; [4]", "value": "8 ± 3.8", "unit": "ng/mL"},
      {"measurement": "MRT last", "setting": "[1]; [4]", "value": "7.6 ± 2.5", "unit": "h"},
      {"measurement": "Tmax", "setting": "[1]; [4]", "value": "1.3 ± 0.6", "unit": "h"},
      {"measurement": "half-life", "setting": "[1]; [4]", "value": "9.4 ± 3.2", "unit": "h"},
      {"measurement": "AUC(0-inf)", "setting": "[1]; [5]", "value": "456 ± 28.5", "unit": "ng·h/mL"},
      {"measurement": "AUC(0-t)", "setting": "[1]; [5]", "value": "409 ± 23", "unit": "ng·h/mL"},
      {"measurement": "Cmax", "setting": "[1]; [5]", "value": "50.8 ± 12.4", "unit": "ng/mL"},
      {"measurement": "MRT last", "setting": "[1]; [5]", "value": "8.6 ± 2.7", "unit": "h"},
      {"measurement": "Tmax", "setting": "[1]; [5]", "value": "1.5 ± 0.7", "unit": "h"},
      {"measurement": "half-life", "setting": "[1]; [5]", "value": "7.6 ± 4.5", "unit": "h"},
      {"measurement": "AUC(0-inf)", "setting": "[1]; [6]", "value": "425 ± 218", "unit": "ng·h/mL"},
      {"measurement": "AUC(0-t)", "setting": "[1]; [6]", "value": "409 ± 201", "unit": "ng·h/mL"},
      {"measurement": "Cmax", "setting": "[1]; [6]", "value": "60.3 ± 29.1", "unit": "ng/mL"},
      {"measurement": "MRT last", "setting": "[1]; [6]", "value": "6.4 ± 0.7", "unit": "h"},
      {"measurement": "Tmax", "setting": "[1]; [6]", "value": 2, "unit": "h"},
      {"measurement": "half-life", "setting": "[1]; [6]", "value": "4.9 ± 0.9", "unit": "h"},
      {"measurement": "Tmax", "setting": "[1]; male, beagle, dog, plasma, po, 10 mg/kg, across the doses 1, 5, 10 mg/kg", "value": "1.3 to 2", "unit": "h"},
      {"measurement": "AUC(0-inf)", "setting": "[1]; [7]", "value": "424 ± 186", "unit": "ng·h/mL"},
      {"measurement": "AUC(0-t)", "setting": "[1]; [7]", "value": "302 ± 72", "unit": "ng·h/mL"},
      {"measurement": "Cmax", "setting": "[1]; [7]", "value": "52.5 ± 13.5", "unit": "ng/mL"},
      {"measurement": "MRT last", "setting": "[1]; [7]", "value": "6.3 ± 3.4", "unit": "h"},
      {"measurement": "Tmax", "setting": "[1]; [7]", "value": 2, "unit": "h"},
      {"measurement": "half-life", "setting": "[1]; [7]", "value": "7.7 ± 5.8", "unit": "h"},
      {"measurement": "bioavailability", "setting": "[1]; male, beagle, dog, plasma, oral, dogs, except at 10 mg/kg", "value": "~30", "unit": "%"},
      {"measurement": "logD", "setting": "[2]; average ± SD of five runs", "value": "1.41 ± 0.08"},
      {"measurement": "logP at 24 h", "setting": "[2]; average ± SD of five runs", "value": "2.46 ± 0.04"},
      {"measurement": "logD", "setting": "[2]; pH 6.4, run 3, pH 6.40", "value": 1.37},
      {"measurement": "logP at 24 h", "setting": "[2]; run 1, from log D and pKa (Henderson-Hasselbalch)", "value": 2.41},
      {"measurement": "logD", "setting": "[2]; run 1, pH 6.41", "value": 1.3},
      {"measurement": "logP at 24 h", "setting": "[2]; run 2, from log D and pKa", "value": 2.43},
      {"measurement": "logD", "setting": "[2]; run 2, pH 6.59", "value": 1.48},
      {"measurement": "logP at 24 h", "setting": "[2]; run 3, from log D and pKa", "value": 2.5},
      {"measurement": "logP at 24 h", "setting": "[2]; run 4, from log D and pKa", "value": 2.51},
      {"measurement": "logD", "setting": "[2]; run 4, pH 6.49", "value": 1.47},
      {"measurement": "logP at 24 h", "setting": "[2]; run 5, from log D and pKa", "value": 2.45},
      {"measurement": "logD", "setting": "[2]; run 5, pH 6.53", "value": 1.45}
    ]}
  ]
}
